Reference: publication PMC3812281, “Synthetic Oxoisoaporphine Alkaloids: In Vitro, In Vivo and In Silico Assessment of Antileishmanial Activities” (PLoS ONE, 2013)

biological target: T1, acetylcholinesterase (AChE) (Homo sapiens, UniProt P22303); assay: Ellman assay, percent inhibition at […]; assay type: biochemical
T1 construct: recombinant acetylcholinesterase (AChE) expressed in HEK 293 cells
T1 sequence (P22303 32-614): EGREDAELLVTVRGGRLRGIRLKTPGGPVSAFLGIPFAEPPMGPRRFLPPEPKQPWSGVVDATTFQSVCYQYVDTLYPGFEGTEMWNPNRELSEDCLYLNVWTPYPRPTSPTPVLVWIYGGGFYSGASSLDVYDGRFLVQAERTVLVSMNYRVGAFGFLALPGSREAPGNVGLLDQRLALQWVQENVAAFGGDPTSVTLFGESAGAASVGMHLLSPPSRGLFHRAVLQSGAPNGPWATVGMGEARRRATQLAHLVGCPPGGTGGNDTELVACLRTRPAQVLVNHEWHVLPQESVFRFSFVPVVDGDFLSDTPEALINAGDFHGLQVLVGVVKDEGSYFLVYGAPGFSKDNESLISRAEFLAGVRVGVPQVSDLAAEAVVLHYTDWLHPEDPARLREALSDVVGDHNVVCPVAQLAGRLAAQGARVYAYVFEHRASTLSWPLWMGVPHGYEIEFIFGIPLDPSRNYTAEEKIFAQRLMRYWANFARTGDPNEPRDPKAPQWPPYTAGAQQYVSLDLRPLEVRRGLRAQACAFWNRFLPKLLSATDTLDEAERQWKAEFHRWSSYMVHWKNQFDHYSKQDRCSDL

For C#CCN[C@@H]1CCc2ccccc21 [Rasagiline, reference compound], which inhibition at 75 µM is on record?
The inhibition at 75 µM was 82.5 ± 4.3%.

With O=C1C2=C(CCCC2)C2=NCCc3cccc1c32 [OXO 13, 2,3,8,9,10,11-hexahydro-7H-dibenzo[de,h]quinolin-7-one] as the compound, how does the inhibition at 75 µM read?
Its inhibition at 75 µM is 25.6 ± 5.9%.

Which inhibition at 75 µM does the source give for O=C1c2ccccc2C2=NCCc3cccc1c32 [OXO 1, 2,3-dihydro-7H-dibenzo[de,h]quinolin-7-one] here?
Its inhibition at 75 µM is 26.2 ± 5.6%.
